In ChEMBL document CHEMBL1146743, “Three new cyclostellettamines, which inhibit histone deacetylase, from a marine sponge of the genus Xestospongia” (Bioorg Med Chem Lett, 2004):

Tests used:
HeLa = assay: Cytotoxicity against human cervix carcinoma (HeLa) cell line; format: functional, cell-based
3Y1 cell line = assay: Inhibitory activity against rat fibroblast (3Y1) cell line; format: functional, cell-based
P388 = assay: Cytotoxicity against mouse leukemia (P388) cell line; format: functional, cell-based
Histone deacetylase = assay: Inhibitory activity against histone deacetylase (HDAC); format: protein assay, Homo sapiens

| Compound | IC50 (HeLa) [nM] | IC50 (3Y1 cell line) [nM] | IC50 (P388) [nM] | IC50 (Histone deacetylase) [nM] |
| --- | --- | --- | --- | --- |
| C1=C/CCCCCC[n+]2cccc(c2)CCCCCCCCCCCCC[n+]2cccc(c2)CCCCCC/1.O=C([O-])C(F)(F)F.O=C([O-])C(F)(F)F | 1800 | 3200 | 1300 | 30000 |
| C1=C/CCCC[n+]2cccc(c2)CCCCCCCCCCCC[n+]2cccc(c2)CCCCCC/1.O=C([O-])C(F)(F)F.O=C([O-])C(F)(F)F | 1800 | 7200 | 2100 | 61000 |
| C1=C/CCCCCC[n+]2cccc(c2)CCCCCCCCCCCC[n+]2cccc(c2)CCCCCC/1.O=C([O-])C(F)(F)F.O=C([O-])C(F)(F)F | 600 | 4300 | 1300 | 17000 |
| C1=C/CCC[n+]2cccc(c2)CCCCCCCCCCCC[n+]2cccc(c2)CCCCCC/1.O=C([O-])C(F)(F)F.O=C([O-])C(F)(F)F | 2800 | 11000 | 2700 | 80000 |
